This passage reports IC50, MIC and TDI results from ChEMBL document CHEMBL4002609, “Sulfonamide-based non-alkyne LpxC inhibitors as Gram-negative antibacterial agents” (Bioorg Med Chem Lett, 2017).

≈ marks a conversion by molar mass, not a printed value.

By IC50 is commonly meant the concentration that inhibits the measured activity by half. The MIC is the lowest concentration that inhibits growth of the organism. Read a low MIC as greater potency.

The target in data set [1] is T1, UDP-3-O-acyl-N-acetylglucosamine deacetylase (Escherichia coli K-12, UniProt P0A725).
T1 sequence (P0A725 whole entry): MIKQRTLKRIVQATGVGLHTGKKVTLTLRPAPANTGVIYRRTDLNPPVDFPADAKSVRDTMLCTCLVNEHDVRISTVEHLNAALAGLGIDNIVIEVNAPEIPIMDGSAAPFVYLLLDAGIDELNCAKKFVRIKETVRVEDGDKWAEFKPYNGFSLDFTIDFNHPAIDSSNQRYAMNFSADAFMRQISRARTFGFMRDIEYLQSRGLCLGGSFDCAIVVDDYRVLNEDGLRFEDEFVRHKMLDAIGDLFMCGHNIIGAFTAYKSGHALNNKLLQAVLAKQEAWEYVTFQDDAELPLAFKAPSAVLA
As to the kind of experiment: Inhibition of Escherichia coli LpxC using UDP-3-O-(R-3-hydroxymyristoyl)GlcNAc as substrate after 60 mins by OPA reagent based fluorescence assay.

For a further data set, the system named is Klebsiella pneumoniae. As to the kind of experiment: Antibacterial activity against Klebsiella pneumoniae ATCC 13883 by agar dilution method. Type of data set: functional. (In agar dilution the substance is mixed into plates at graded concentrations.)
The next data set concerns Pseudomonas aeruginosa. The experiment in a line: Antibacterial activity against Pseudomonas aeruginosa PAO 4009 by agar dilution method. The class given is functional.
A further data set deals with Escherichia coli. The experiment in a line: Antibacterial activity against Escherichia coli TG1 by agar dilution method. Type of data set: functional.
The test system of another data set is Staphylococcus aureus. The experiment in a line: Antibacterial activity against Staphylococcus aureus ATCC 29213 by agar dilution method. Type of data set: functional.
The target of another data set is Cytochrome P450 2D6 (Homo sapiens, UniProt P10635). As to the kind of experiment: Time-dependent inhibition of CYP2D6 (unknown origin). Type of data set: ADME.
The next data set deals with Cytochrome P450 2C19 (Homo sapiens, UniProt P33261). As to the kind of experiment: Time-dependent inhibition of CYP2C19 (unknown origin). The class given is ADME.
The target in another data set is Cytochrome P450 3A4 (Homo sapiens, UniProt P08684). As to the kind of experiment: Time-dependent inhibition of CYP3A4 (unknown origin). The class given is ADME.
The target in the next data set is Cytochrome P450 2C9 (Homo sapiens, UniProt P11712). As to the kind of experiment: Time-dependent inhibition of CYP2C9 (unknown origin). Type of data set: ADME.
The target of a further data set is T2, Cytochrome P450 1A2 (Homo sapiens, UniProt P05177).
T2 sequence (P05177 whole entry): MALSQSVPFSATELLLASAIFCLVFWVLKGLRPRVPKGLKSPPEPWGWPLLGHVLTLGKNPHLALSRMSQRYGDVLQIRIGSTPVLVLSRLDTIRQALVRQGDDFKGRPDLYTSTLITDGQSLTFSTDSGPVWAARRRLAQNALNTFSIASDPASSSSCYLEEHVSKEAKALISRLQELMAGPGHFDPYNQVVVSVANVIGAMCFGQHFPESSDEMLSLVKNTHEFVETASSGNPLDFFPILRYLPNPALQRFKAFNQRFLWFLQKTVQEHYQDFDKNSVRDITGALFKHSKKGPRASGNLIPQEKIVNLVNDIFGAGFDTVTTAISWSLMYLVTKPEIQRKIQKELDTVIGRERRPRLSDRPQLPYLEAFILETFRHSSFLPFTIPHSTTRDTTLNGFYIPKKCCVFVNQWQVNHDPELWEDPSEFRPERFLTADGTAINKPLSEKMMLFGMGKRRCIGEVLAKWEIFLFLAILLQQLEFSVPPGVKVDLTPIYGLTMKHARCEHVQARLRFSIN
As to the kind of experiment: Time-dependent inhibition of CYP1A2 (unknown origin). The class given is ADME.

Chain of Cytochrome P450 2D6 (P10635 whole entry): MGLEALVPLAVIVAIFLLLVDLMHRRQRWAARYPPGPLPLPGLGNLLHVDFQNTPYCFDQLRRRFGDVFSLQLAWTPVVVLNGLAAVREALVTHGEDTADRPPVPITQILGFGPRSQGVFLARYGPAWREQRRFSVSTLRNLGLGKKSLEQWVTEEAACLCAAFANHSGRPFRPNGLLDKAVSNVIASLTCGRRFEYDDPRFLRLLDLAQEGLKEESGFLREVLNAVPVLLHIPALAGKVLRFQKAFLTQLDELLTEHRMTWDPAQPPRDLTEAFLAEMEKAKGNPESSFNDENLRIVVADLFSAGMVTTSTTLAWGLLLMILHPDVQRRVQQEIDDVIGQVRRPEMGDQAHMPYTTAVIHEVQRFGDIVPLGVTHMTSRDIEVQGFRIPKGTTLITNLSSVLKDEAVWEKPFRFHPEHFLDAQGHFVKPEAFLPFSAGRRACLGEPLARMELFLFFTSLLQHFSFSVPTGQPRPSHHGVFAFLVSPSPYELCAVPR
Chain of Cytochrome P450 2C9 (P11712 whole entry): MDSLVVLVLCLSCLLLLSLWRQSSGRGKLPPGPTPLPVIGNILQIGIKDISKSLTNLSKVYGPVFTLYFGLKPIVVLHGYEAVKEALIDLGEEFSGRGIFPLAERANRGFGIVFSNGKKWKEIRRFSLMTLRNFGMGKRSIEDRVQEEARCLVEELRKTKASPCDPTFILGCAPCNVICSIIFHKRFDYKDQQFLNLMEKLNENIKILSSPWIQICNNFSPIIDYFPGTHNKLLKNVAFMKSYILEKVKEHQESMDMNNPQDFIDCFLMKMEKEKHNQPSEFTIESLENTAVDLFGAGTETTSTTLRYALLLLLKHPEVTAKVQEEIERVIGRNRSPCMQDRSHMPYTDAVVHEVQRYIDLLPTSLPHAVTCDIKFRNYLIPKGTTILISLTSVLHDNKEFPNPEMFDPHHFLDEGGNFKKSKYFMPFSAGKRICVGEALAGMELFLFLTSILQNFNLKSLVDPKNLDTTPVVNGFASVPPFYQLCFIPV
Chain of Cytochrome P450 3A4 (P08684 whole entry): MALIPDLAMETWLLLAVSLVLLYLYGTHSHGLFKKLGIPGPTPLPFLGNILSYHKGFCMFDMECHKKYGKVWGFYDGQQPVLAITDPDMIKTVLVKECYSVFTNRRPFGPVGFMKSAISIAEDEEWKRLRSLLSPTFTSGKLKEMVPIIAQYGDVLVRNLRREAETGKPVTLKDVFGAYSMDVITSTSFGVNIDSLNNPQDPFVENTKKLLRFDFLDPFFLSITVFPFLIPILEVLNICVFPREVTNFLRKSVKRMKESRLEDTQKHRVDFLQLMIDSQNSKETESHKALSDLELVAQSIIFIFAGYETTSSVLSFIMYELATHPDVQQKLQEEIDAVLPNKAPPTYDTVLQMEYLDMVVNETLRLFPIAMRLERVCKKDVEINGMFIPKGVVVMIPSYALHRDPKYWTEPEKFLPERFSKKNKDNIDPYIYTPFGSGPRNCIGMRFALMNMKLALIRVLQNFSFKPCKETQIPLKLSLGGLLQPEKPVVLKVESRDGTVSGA
Chain of Cytochrome P450 2C19 (P33261 whole entry): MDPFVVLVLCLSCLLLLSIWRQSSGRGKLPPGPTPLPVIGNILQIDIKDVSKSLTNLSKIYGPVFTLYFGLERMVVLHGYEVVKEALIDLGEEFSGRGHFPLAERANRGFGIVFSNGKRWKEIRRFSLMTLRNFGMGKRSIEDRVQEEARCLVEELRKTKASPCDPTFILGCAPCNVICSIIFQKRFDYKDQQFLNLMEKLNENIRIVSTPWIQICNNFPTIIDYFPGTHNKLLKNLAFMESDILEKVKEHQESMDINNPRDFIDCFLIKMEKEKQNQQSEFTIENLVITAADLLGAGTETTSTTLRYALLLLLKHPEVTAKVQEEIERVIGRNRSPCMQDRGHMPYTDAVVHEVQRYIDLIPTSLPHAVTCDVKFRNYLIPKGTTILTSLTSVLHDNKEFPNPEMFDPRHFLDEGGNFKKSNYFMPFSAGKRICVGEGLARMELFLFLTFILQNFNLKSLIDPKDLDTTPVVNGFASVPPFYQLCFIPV

On to `CC(C)(NS(C)(=O)=O)[C@H](NC(=O)c1ccc(-c2ccccc2)cc1)C(=O)NO`, for which, in data set [1], inhibition was half-maximal at 1200 nM (IC50). Moreover, the minimal inhibitory concentration (MIC) with Klebsiella pneumoniae is 64 µg/mL (≈ 158 µM); with Pseudomonas aeruginosa, 1 µg/mL (≈ 2.47 µM); with Escherichia coli it was 2 µg/mL (≈ 4.93 µM).
The molecule `Cc1ccc(-c2ccc(C(=O)N[C@H](C(=O)NO)C(C)(C)NS(C)(=O)=O)cc2)cc1` gave an IC50 in data set [1] of 420 nM. Also, the MIC in the data set with Staphylococcus aureus is over 128 µg/mL; in the data set on Klebsiella pneumoniae it was 4 µg/mL (≈ 9.54 µM); in the data set on Pseudomonas aeruginosa, 0.5 µg/mL (≈ 1.19 µM); in the data set with Escherichia coli it was 1 µg/mL (≈ 2.38 µM). Further, the TDI entry at Cytochrome P450 2D6, at Cytochrome P450 2C19, at Cytochrome P450 3A4, on Cytochrome P450 2C9 and on Cytochrome P450 1A2 was “Active” each time.
With `Cc1cnc(-c2ccc(C(=O)N[C@H](C(=O)NO)C(C)(C)NS(C)(=O)=O)cc2)nc1`, the IC50 in data set [1] was over 10000 nM. Besides, the figures for the MIC in the data set on Klebsiella pneumoniae, against Pseudomonas aeruginosa and in the data set on Escherichia coli were over 128 µg/mL, 16 µg/mL (≈ 38 µM) and 64 µg/mL (≈ 152 µM), respectively.
`CC(C)(NS(C)(=O)=O)[C@H](NC(=O)c1ccc(-c2cc3ccccn3n2)cc1)C(=O)NO` showed a concentration for half-maximal inhibition (IC50) in data set [1] of over 10000 nM. The MIC with Staphylococcus aureus was over 128 µg/mL; in the data set on Klebsiella pneumoniae, over 128 µg/mL; in the data set on Pseudomonas aeruginosa, 4 µg/mL (≈ 8.98 µM); in the data set with Escherichia coli, 64 µg/mL (≈ 144 µM).
Consider `CC(C)(NS(C)(=O)=O)[C@H](NC(=O)c1ccc(-c2nc3ccccc3o2)cc1)C(=O)NO`, for which 410 nM corresponded to half-maximal inhibition in [1] (IC50). Further, the minimal inhibitory concentration (MIC) against Staphylococcus aureus is over 128 µg/mL; in the data set on Klebsiella pneumoniae it was 8 µg/mL (≈ 17.9 µM); against Pseudomonas aeruginosa, 4 µg/mL (≈ 8.96 µM); against Escherichia coli it was 1 µg/mL (≈ 2.24 µM).
The matching figures for `CC(C)(NS(C)(=O)=O)[C@H](NC(=O)c1ccc(-c2cc3ccc(F)cc3o2)cc1)C(=O)NO`: 79 nM, 64 µg/mL (≈ 138 µM), 1 µg/mL (≈ 2.16 µM), 0.5 µg/mL (≈ 1.08 µM) and 0.25 µg/mL (≈ 0.539 µM).
For `CC(C)(NS(C)(=O)=O)[C@H](NC(=O)c1ccc(-c2cc3ccc(OCCO)cc3o2)cc1)C(=O)NO` the same measures were 10 nM, over 128 µg/mL, 8 µg/mL (≈ 15.8 µM), 4 µg/mL (≈ 7.91 µM) and 1 µg/mL (≈ 1.98 µM).
For the molecule `CC(C)(NS(C)(=O)=O)[C@H](NC(=O)c1ccc(-c2cc3cc(F)ccc3o2)cc1)C(=O)NO`, in [1], the midpoint of inhibition, the IC50, lay at 100 nM. For the same molecule, the minimal inhibitory concentration (MIC) against Staphylococcus aureus was 32 µg/mL (≈ 69 µM); in the data set with Klebsiella pneumoniae it was 1 µg/mL (≈ 2.16 µM); against Pseudomonas aeruginosa it was 0.5 µg/mL (≈ 1.08 µM); in the data set on Escherichia coli it was 0.25 µg/mL (≈ 0.539 µM).
For `CN(C)CCOc1ccc2cc(-c3ccc(C(=O)N[C@H](C(=O)NO)C(C)(C)NS(C)(=O)=O)cc3)oc2c1` the same measures were 22 nM, over 128 µg/mL, 32 µg/mL (≈ 60.1 µM), 8 µg/mL (≈ 15 µM) and 4 µg/mL (≈ 7.51 µM).
For `CC(C)(NS(C)(=O)=O)[C@H](NC(=O)c1ccc(-c2cc3ccccc3o2)cc1)C(=O)NO` the same measures were 81 nM, 64 µg/mL (≈ 144 µM), 1 µg/mL (≈ 2.24 µM), 1 µg/mL (≈ 2.24 µM) and 0.25 µg/mL (≈ 0.561 µM).
Regarding `Cc1ncc(-c2ccc(C(=O)N[C@H](C(=O)NO)C(C)(C)NS(C)(=O)=O)cc2)cn1`, the IC50 in [1] was over 10000 nM. In addition, the MIC in the data set on Klebsiella pneumoniae, in the data set with Pseudomonas aeruginosa and with Escherichia coli was over 128 µg/mL in each case.
In turn, `CC(C)(NS(C)(=O)=O)[C@H](NC(=O)c1ccc(-c2cc3cc4c(cc3o2)OCO4)cc1)C(=O)NO` displayed a concentration for half-maximal inhibition (IC50) in [1] of 12 nM. Further, the minimum inhibitory concentration (MIC) with Staphylococcus aureus is over 32 µg/mL; against Klebsiella pneumoniae, 0.5 µg/mL (≈ 1.02 µM); against Pseudomonas aeruginosa it was 0.5 µg/mL (≈ 1.02 µM); in the data set on Escherichia coli, 0.063 µg/mL (≈ 0.129 µM).
Turning to `C[C@@H](O)[C@H](NC(=O)c1ccc(C#Cc2ccc(CN3CCOCC3)cc2)cc1)C(=O)NO`, the MIC is over 128 µg/mL against Staphylococcus aureus, 0.25 µg/mL (≈ 0.571 µM) with Klebsiella pneumoniae, 0.5 µg/mL (≈ 1.14 µM) in the data set on Pseudomonas aeruginosa and 0.125 µg/mL (≈ 0.286 µM) in the data set with Escherichia coli.
In data set [1], `Cc1ccc(-c2ccc(C(=O)N[C@H](C(=O)NO)C(C)(C)NS(C)(=O)=O)nc2)cc1` displayed an IC50 of over 10000 nM. Moreover, the figures for the minimal inhibitory concentration (MIC) against Klebsiella pneumoniae, against Pseudomonas aeruginosa and with Escherichia coli were over 128 µg/mL, 32 µg/mL (≈ 76.1 µM) and 32 µg/mL (≈ 76.1 µM), respectively.
For `CC(C)(NS(C)(=O)=O)[C@H](NC(=O)c1ccc(-c2cc3ccncc3o2)cc1)C(=O)NO`, half-maximal inhibition in data set [1] (IC50) required 1400 nM. Moreover, the minimal inhibitory concentration (MIC) was over 128 µg/mL against Staphylococcus aureus, 128 µg/mL (≈ 287 µM) in the data set on Klebsiella pneumoniae, 8 µg/mL (≈ 17.9 µM) in the data set on Pseudomonas aeruginosa and 8 µg/mL (≈ 17.9 µM) in the data set on Escherichia coli.
Take `CC(C)(NS(C)(=O)=O)[C@H](NC(=O)c1ccc(-c2cc3cncnc3o2)cc1)C(=O)NO`: in data set [1], the concentration for half-maximal inhibition (IC50) was over 10000 nM. The MIC is over 128 µg/mL with Staphylococcus aureus, over 128 µg/mL in the data set on Klebsiella pneumoniae, 32 µg/mL (≈ 71.5 µM) against Pseudomonas aeruginosa and 128 µg/mL (≈ 286 µM) in the data set with Escherichia coli.
`CC(C)(NS(C)(=O)=O)[C@H](NC(=O)c1ccc(-c2cc3ccc(O)cc3o2)cc1)C(=O)NO` registered an IC50 in data set [1] of 140 nM. Also, the MIC against Staphylococcus aureus is over 64 µg/mL; in the data set on Klebsiella pneumoniae, 8 µg/mL (≈ 17.3 µM); against Pseudomonas aeruginosa it was 2 µg/mL (≈ 4.33 µM); in the data set with Escherichia coli, 1 µg/mL (≈ 2.17 µM).
`Cc1ccc(-c2ccc(C(=O)N[C@H](C(=O)NO)C(C)(C)NS(C)(=O)=O)cn2)cc1` yielded an IC50 in data set [1] of 1500 nM. The MIC with Klebsiella pneumoniae came out at 64 µg/mL (≈ 152 µM); against Pseudomonas aeruginosa it was 4 µg/mL (≈ 9.51 µM); against Escherichia coli it was 8 µg/mL (≈ 19 µM).
